Where “and” joins values, the source holds several entries; their conditions need not be identical. Identical values can stand only once.
Experiments:
[1] = target: AbCGT (Aloe vera, UniProt A0A7G9P699); test: Glycosyltransferase activity assay, purified AbCGT (wild type) with aglycon acceptors and UDP-Glc; assay type: biochemical, Aloe barbadensis; conditions: Reaction-1 to -3; for conversion rates, O,N,S-glycosylation / conversion rates, di-C-glycosylation / conversion rates, mono-C-glycosylation: aglycon acceptor with UDP-Glc, pH 7.4, 30 °C, up to 12 h; for conversion rates, Purified Enzyme: fig. 2b, purified AbCGT, redesigned substrates
AbCGT, sequence (A0A7G9P699 entry or part of it): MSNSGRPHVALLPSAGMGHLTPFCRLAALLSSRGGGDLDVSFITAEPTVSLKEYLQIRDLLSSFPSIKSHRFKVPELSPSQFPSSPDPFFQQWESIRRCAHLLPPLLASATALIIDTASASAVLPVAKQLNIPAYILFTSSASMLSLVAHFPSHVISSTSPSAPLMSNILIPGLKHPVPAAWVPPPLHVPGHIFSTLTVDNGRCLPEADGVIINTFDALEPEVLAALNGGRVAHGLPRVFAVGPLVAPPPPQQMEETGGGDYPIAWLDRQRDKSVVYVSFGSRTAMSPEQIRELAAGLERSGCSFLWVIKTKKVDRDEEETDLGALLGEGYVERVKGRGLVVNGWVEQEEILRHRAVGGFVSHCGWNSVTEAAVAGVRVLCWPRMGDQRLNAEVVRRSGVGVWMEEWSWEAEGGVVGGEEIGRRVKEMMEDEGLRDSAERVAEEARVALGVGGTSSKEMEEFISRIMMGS

[2] = target: T1, SGLT2 (Homo sapiens, UniProt P31639); test: 1-NBDG uptake in HEK293 cells stably expressing SGLT2; assay type: cell-based; conditions: HEK293, compound at 10 μM; triplicate; read-out: SGLT2 inhibitory rates
T1 construct: Human full-length SGLT2 cDNA (NM_003041.3) was synthesized; expressed in transfected cells; host or cells: HEK293, retroviral transduction with pMSCVpuro-SGLT2, puromycin selected
T1 sequence (P31639 1-672): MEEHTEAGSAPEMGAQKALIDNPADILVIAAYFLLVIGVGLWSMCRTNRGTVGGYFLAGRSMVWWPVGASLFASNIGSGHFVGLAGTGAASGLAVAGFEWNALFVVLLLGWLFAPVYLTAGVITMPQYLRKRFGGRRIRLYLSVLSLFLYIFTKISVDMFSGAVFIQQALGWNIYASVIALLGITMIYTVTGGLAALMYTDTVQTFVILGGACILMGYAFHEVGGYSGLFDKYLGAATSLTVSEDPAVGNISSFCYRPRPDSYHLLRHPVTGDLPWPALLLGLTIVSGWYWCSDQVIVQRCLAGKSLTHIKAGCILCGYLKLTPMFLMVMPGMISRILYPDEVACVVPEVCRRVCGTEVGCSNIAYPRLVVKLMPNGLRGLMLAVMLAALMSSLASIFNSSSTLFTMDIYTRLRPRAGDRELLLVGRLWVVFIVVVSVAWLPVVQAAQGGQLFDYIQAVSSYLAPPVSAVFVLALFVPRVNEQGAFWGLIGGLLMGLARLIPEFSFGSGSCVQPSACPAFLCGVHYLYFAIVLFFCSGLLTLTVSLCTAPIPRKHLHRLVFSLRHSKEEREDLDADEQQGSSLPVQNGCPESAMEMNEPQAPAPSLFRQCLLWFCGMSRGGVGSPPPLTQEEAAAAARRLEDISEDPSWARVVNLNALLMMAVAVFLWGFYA

[3] = test system: E. coli-AbCGT; test: Glycosylation by whole-cell biocatalyst E. coli-AbCGT; assay type: cell-based; conditions: fig. 2c, 30 °C, M9 medium, 12 h, 0.25 mM acceptor; Reaction-1 to -3
Procedure: The induced cells of E. coli-AbCGT were harvested by centrifugation at 3000 × g for 5 min at 4 °C and washed with ddH2O. Pellets were resuspended by M9 minimal medium containing 2% glucose to appropriate cell density (OD600 = 3.0). Prepared whole-cell biocatalyst of E. coli-AbCGT (500 μL) was then added to 2-mL tubes containing various acceptors at a concentration of 0.25 mM. The mixture was incubated at 30 °C for 12 h with shaking (200 rpm). The reactions were analyzed using GT activity assays as described above. For quantification, three parallel assays were routinely carried out.

SMILES | conversion rates, O,N,S-glycosylation [1] | conversion rates, di-C-glycosylation [1] | conversion rates, mono-C-glycosylation [1] | inhibition at 10 µM [2] | conversion rates, Purified Enzyme [1] | conversion rates, Whole cells [3]
COc1ccc(Cc2c(O)cc(O)cc2O)cc1OC [Compound 20] | 0% | 0% | 100% | 0.2% |  | 
COc1ccc(Cc2c(O)cc(O)c([C@@H]3O[C@H](CO)[C@@H](O)[C@H](O)[C@H]3O)c2O)cc1OC [Compound 20a] |  |  |  | 13.6% |  | 
COc1ccc(CCc2ccc(O)cc2O)cc1 [Compound 21] | 0% | 0% | 100% | 1.8% |  | 
COc1ccc(CCc2ccc(O)c([C@@H]3O[C@H](CO)[C@@H](O)[C@H](O)[C@H]3O)c2O)cc1 [Compound 21a] |  |  |  | 22.7% |  | 
CCc1ccc(O)cc1O [Compound 27] |  |  |  |  | 5.7% and 8.5% and 6.8% | 0%
Oc1ccc(Cc2ccccc2)c(O)c1 [Compound 28] |  |  |  |  | 55.6% and 72.2% and 58.2% | 0.5% and 0.7% and 0.3%
Oc1ccc(/N=N/c2nccs2)c(O)c1 [Compound 29] |  |  |  |  | 35.9% and 40% and 39.9% | 3.7% and 5.4% and 5.9%
CCc1c(O)cc(O)cc1O [Compound 30] |  |  |  |  | 100% | 0%
Oc1cc(O)c(CC2CC2)c(O)c1 [Compound 34] |  |  |  |  | 100% | 11.3% and 11.9% and 15.8%
Oc1cc(O)c(CC2CCC2)c(O)c1 [Compound 35] |  |  |  |  | 100% | 41.1% and 39.5% and 30.5%
Oc1cc(O)c(CC2CCCC2)c(O)c1 [Compound 36] |  |  |  |  | 100% | 53.8% and 69.1% and 57.1%
Oc1cc(O)c(CC2CCCCC2)c(O)c1 [Compound 37] |  |  |  |  | 100% | 100%
Oc1cc(O)c(Cc2ccccc2)c(O)c1 [Compound 38, 1-benzylbenzene-2,4,6-triol] |  |  |  | 4.2% | 100% | 44.3% and 46.1% and 53.7%
OCC1OC(c2c(O)cc(O)c(Cc3ccccc3)c2O)C(O)C(O)C1O (stereo not shown) [Compound 38a] |  |  |  | 76.4% |  | 
Oc1cc(O)c(CCc2ccccc2)c(O)c1 [Compound 39, 1-phenethylbenzene-2,4,6-triol] |  |  |  | 0.2% | 100% | 7.2% and 13.4% and 9.4%
OCC1OC(c2c(O)cc(O)c(CCc3ccccc3)c2O)C(O)C(O)C1O (stereo not shown) [Compound 39a] |  |  |  | 23.6% |  | 
Oc1cc(O)c(CCCCc2ccccc2)c(O)c1 [Compound 40] |  |  |  |  | 100% | 100%

SMILES | conversion rates, O,N,S-glycosylation [1] | conversion rates, di-C-glycosylation [1] | conversion rates, mono-C-glycosylation [1] | inhibition at 10 µM [2] | conversion rates, Purified Enzyme [1] | conversion rates, Whole cells [3]
Oc1cc(O)c(Cc2ccsc2)c(O)c1 [Compound 42] |  |  |  | 2.7% | 100% | 73% and 84.5% and 79.6%
OCC1OC(c2c(O)cc(O)c(Cc3ccsc3)c2O)C(O)C(O)C1O (stereo not shown) [Compound 42a] |  |  |  | 68.5% |  | 
Oc1cc(O)c(CCc2c[nH]c3ccccc23)c(O)c1 [Compound 43] |  |  |  | 12.9% | 100% | 87.2% and 96% and 92.6%
OCC1OC(c2c(O)cc(O)c(CCc3c[nH]c4ccccc34)c2O)C(O)C(O)C1O (stereo not shown) [Compound 43a] |  |  |  | 20.4% |  | 
CCCCc1ccc(Cc2c(O)cc(O)cc2O)cc1 [Compound 47] |  |  |  | 0.2% | 100% | 2.7% and 3.2% and 3.1%
Oc1cc(O)c(Cc2ccc(F)cc2)c(O)c1 [Compound 48] |  |  |  | 0.2% | 100% | 86% and 92.2% and 88.8%
OCC1OC(c2c(O)cc(O)c(Cc3ccc(F)cc3)c2O)C(O)C(O)C1O (stereo not shown) [Compound 48a] |  |  |  | 85.4% |  | 
Oc1cc(O)c(Cc2ccc(Cl)cc2)c(O)c1 [Compound 49] |  |  |  | 0.2% | 100% | 0.8% and 0.9%
Oc1cc(O)c(Cc2ccc(-c3ccccc3)cc2)c(O)c1 [Compound 50] |  |  |  | 0.2% | 100% | 0%
Oc1ccc(CCc2c(O)cc(O)cc2O)cc1 [Compound 51] |  |  |  | 3.3% | 100% | 87.9% and 92.2% and 95.8%
OCC1OC(c2c(O)cc(O)c(CCc3ccc(O)cc3)c2O)C(O)C(O)C1O (stereo not shown) [Compound 51a] |  |  |  | 18.6% |  | 
Oc1cc(O)c(CCc2ccc3c(c2)CCO3)c(O)c1 [Compound 52] |  |  |  | 0.8% | 100% | 84.1% and 72.7% and 80.3%
OCC1OC(c2c(O)cc(O)c(CCc3ccc4c(c3)CCO4)c2O)C(O)C(O)C1O (stereo not shown) [Compound 52a] |  |  |  | 36.7% |  | 
Oc1cc(O)c(CCc2ccc(F)cc2)c(O)c1 [Compound 53] |  |  |  | 0.2% | 100% | 66.8% and 61% and 58.3%
OCC1OC(c2c(O)cc(O)c(CCc3ccc(F)cc3)c2O)C(O)C(O)C1O (stereo not shown) [Compound 53a] |  |  |  | 24.3% |  | 
Oc1cc(O)c(CCc2ccc(Cl)cc2)c(O)c1 [Compound 54] |  |  |  | 0.2% | 100% | 39.8% and 44.7% and 47.4%
OCC1OC(c2c(O)cc(O)c(CCc3ccc(Cl)cc3)c2O)C(O)C(O)C1O (stereo not shown) [Compound 54a] |  |  |  | 62.5% |  | 
